Read-outs that look alike come from different tables or passages of the source.
What was measured:
Assay type in all cases: cell-based
tumor cells [1] = assay: Mitochondrial membrane potential, JC-1 (read-out 48 h); settings: JC-1, 48 h
Experimental: (§1) D) Mitochondrial Membrane Potential
(§2) This assay is performed in 96 well tissue culture plates. Appropriate number of cells (adherent cells: 3-5*10^3, suspension cells: 8-10*10^3) are being seeded out in 80 μl complete medium. Adherent cells are incubated for 24 h for proper spreading out before addition of test compounds while suspension cells are immediately treated with test compounds after seeding out. The test compounds are added in 20 μl complete medium containing max 5% DMSO. […] After 24 h or 48 h incubation at culture conditions, 10 μl medium containing JC-1 (Molecular Probes, T-3168) at 2-5 μg/ml are added to each well. The assay plates are then further incubated for 30 minutes and subsequently analyzed with a standard inverted fluorescence microscope by using the FITC and TRITC filters.
(§3) The readout allows the determination of the fraction of cells which show a dissipation of the mitochondrial membrane potential strongly indicating an apoptotic cell death as a function of the treatment. The scores A, B, C and D are explained at the end of the Table.

[2] = as above; settings: PBL, JC-1, 48 h
Experimental: as §1, §2, §3

tumor cells [3] = assay: Hoechst 33342 nuclear staining (48 h read-out)
Experimental: (§4) A) Hoechst 33342 Nuclear Staining
(§5) This assay is performed in 96 well tissue culture plates. Appropriate number of cells (adherent cells: 3-5*10^3, suspension cells: 8-10*10^3) are being seeded out in 80 μl complete medium. Adherent cells are incubated for 24 h for proper spreading out before addition of test compounds while suspension cells are immediately treated with test compounds after seeding out. The test compounds are added in 20 μl complete medium containing max 5% DMSO. The final compound concentrations in the assays are in the range of 0.001 μM-10 μM. After 24 h or 48 h incubation at culture conditions, 10 μl medium containing Hoechst 33342 dye (Sigma B-2261) at 2-5 μg/ml are added to each well. The assay plates are then further incubated for 30 minutes and subsequently analyzed with a standard inverted fluorescence microscope.
(§6) The readout allows the determination of the fraction of apoptotic nuclei as well as other morphological criteria specific for apoptosis as a function of the treatment. The scores A, B, C and D are explained at the end of the Table.

[4] = Hoechst 33342 nuclear staining (48 h read-out)
Experimental: as §4, §5, §6

tumor cells [5] = assay: MTS proliferation assay (72 h read-out)
Experimental: (§7) B) MTS Proliferation Assay
(§8) The assay is performed in 96 well tissue culture plates. The cells (range: 1.5*10^3-10^4) are seeded out in 80 μl complete medium 24 h prior to compound treatment. The test compounds are added in 20 μl complete medium containing max 5% DMSO. The final compound concentrations in the assays are in the range of 0.001 μM-10 μM. The assay plates are incubated for 72 h at culture conditions. The MTS reagent is prepared according to the manufacturer's protocol (Promega G1111). 20 μl MTS reagent are added to each well; the assay plates are quickly spun and incubated for another 3 h at culture conditions. Subsequently, the plates are shortly shaked and absorption measured with a microplate-reader at 492 nm. The scores A, B, C and D are explained at the end of the Table.

[6] = MTS proliferation assay (72 h read-out); settings: MRC5 cells
Experimental: as §7, §8

[7] = HeLa cells, read-out: Mitochondrial membrane potential (read-out 48 h) HeLa
[8] = Jily cells, read-out: Mitochondrial membrane potential (read-out 48 h) Jily
[9] = Jurkat cells, read-out: Mitochondrial membrane potential (read-out 48 h) Jurkat
[10] = MCF7 cells, read-out: Mitochondrial membrane potential (read-out 48 h) MCF7
[11] = HeLa cells, read-out: Hoechst 33342 nuclear staining EC50, HeLa
[12] = Jily cells, read-out: Hoechst 33342 nuclear staining EC50, Jily
[13] = Jurkat cells, read-out: Hoechst 33342 nuclear staining EC50, Jurkat
[14] = MRC5 cells, read-out: Hoechst 33342 nuclear staining EC50, MRC5
[15] = PBL, read-out: Hoechst 33342 nuclear staining EC50, PBL
[16] = HT1080 cells, read-out: MTS proliferation assay IC50, HT1080
[17] = HeLa cells, read-out: MTS proliferation assay IC50, HeLa
[18] = Jily cells, read-out: MTS proliferation assay IC50, Jily
[19] = Jurkat cells, read-out: MTS proliferation assay IC50, Jurkat

Row | Structure (SMILES) | EC50 (tumor cells [1]; [7]) | EC50 (tumor cells [1]; [8]) | EC50 (tumor cells [1]; [9]) | EC50 (tumor cells [1]; [10]) | EC50 [2] | EC50 (tumor cells [3]; [11]) | EC50 (tumor cells [3]; [12]) | EC50 (tumor cells [3]; [13]) | EC50 [4, 14] | EC50 [4, 15] | IC50 (tumor cells [5]; [16]) | IC50 (tumor cells [5]; [17]) | IC50 (tumor cells [5]; [18]) | IC50 [6] | IC50 (tumor cells [5]; [19]) | also measured
1 | CCOc1ccc(F)cc1C(=O)c1cc2cc(Oc3ccccn3)ccc2o1 [Example 73] | 0.1 to 1 µM | 0.1 to 1 µM | 0.1 to 1 µM | > 1 µM | > 1 µM | 0.1 to 1 µM | 0.1 to 1 µM | 0.1 to 1 µM | 0.1 to 1 µM | > 1 µM | 0.1 to 1 µM | 0.1 to 1 µM | 0.1 to 1 µM | 0.1 to 1 µM | – | –
2 | COc1ccc2oc(C(=O)c3cccnc3N3CCCCC3)cc2c1 [Example 91] | 0.01 to 0.1 µM | 0.01 to 0.1 µM | 0.01 to 0.1 µM | 0.01 to 0.1 µM | > 1 µM | 0.1 to 1 µM | 0.1 to 1 µM | 0.1 to 1 µM | 0.1 to 1 µM | > 1 µM | < 0.01 µM | 0.01 to 0.1 µM | < 0.01 µM | < 0.01 µM | < 0.01 µM | –
3 | CCOc1ccc(F)cc1C(=O)c1cc2cc(OC(C)=O)ccc2o1 [Example 65] | 0.01 to 0.1 µM | 0.01 to 0.1 µM | < 0.01 µM | > 1 µM | > 1 µM | 0.01 to 0.1 µM | 0.01 to 0.1 µM | < 0.01 µM | 0.1 to 1 µM | > 1 µM | < 0.01 µM | 0.01 to 0.1 µM | < 0.01 µM | < 0.01 µM | < 0.01 µM | –
4 | COc1ccc2oc(C(=O)c3cccnc3-n3ccnc3)cc2c1 [Example 90] | > 1 µM | > 1 µM | > 1 µM | > 1 µM | > 1 µM | > 1 µM | > 1 µM | > 1 µM | > 1 µM | > 1 µM | > 1 µM | > 1 µM | > 1 µM | > 1 µM | > 1 µM | –
5 | Nc1c(C(=O)c2ccccc2OCc2ccccc2)oc2ccc(Cl)cc12 [Example 1, 3-Amino-5-chloro-2-(2-benzyloxybenzoyl)-benzofuran] | – | > 1 µM | – | – | > 1 µM | – | > 1 µM | – | – | > 1 µM | – | – | 0.1 to 1 µM | – | – | EC50 (tumor cells [1]; Homo sapiens, HeLa cells, read-out: Mitochondrial membrane potential (read-out 48 h) HeLa): > 1 µM; EC50 (tumor cells [1]; Homo sapiens, Jurkat cells, read-out: Mitochondrial membrane potential (read-out 48 h) Jurkat): 0.1 to 1 µM; EC50 (tumor cells [1]; Homo sapiens, MCF7 cells, read-out: Mitochondrial membrane potential (read-out 48 h) MCF7): > 1 µM; EC50 (tumor cells [3]; Homo sapiens, HeLa cells, read-out: Hoechst 33342 nuclear staining EC50, HeLa): > 1 µM; EC50 (tumor cells [3]; Homo sapiens, Jurkat cells, read-out: Hoechst 33342 nuclear staining EC50, Jurkat): > 1 µM; EC50 ([4]; Homo sapiens, MRC5 cells, read-out: Hoechst 33342 nuclear staining EC50, MRC5): > 1 µM; IC50 (tumor cells [5]; Homo sapiens, HT-1080, HT1080 cells, read-out: MTS proliferation assay IC50, HT1080): > 1 µM; IC50 (tumor cells [5]; Homo sapiens, HeLa cells, read-out: MTS proliferation assay IC50, HeLa): > 1 µM; IC50 ([6]; Homo sapiens): > 1 µM
6 | COc1ccc2oc(C(=O)c3cc(F)ccc3N3CCCCC3C)cc2c1 (stereo not drawn) [Example 97] | > 1 µM | > 1 µM | > 1 µM | > 1 µM | > 1 µM | > 1 µM | > 1 µM | > 1 µM | > 1 µM | > 1 µM | 0.1 to 1 µM | > 1 µM | 0.1 to 1 µM | 0.1 to 1 µM | 0.1 to 1 µM | –
7 | CCOc1ccc(C(=O)O)cc1C(=O)c1oc2ccc(Cl)cc2c1N [Example 44] | > 1 µM | > 1 µM | > 1 µM | > 1 µM | > 1 µM | > 1 µM | > 1 µM | > 1 µM | > 1 µM | > 1 µM | > 1 µM | > 1 µM | > 1 µM | > 1 µM | > 1 µM | –
8 | CCOc1ccc(F)cc1C(=O)c1oc2ccc(OC)cc2c1NS(=O)(=O)N(C)C [Example 50] | > 1 µM | > 1 µM | 0.1 to 1 µM | > 1 µM | > 1 µM | > 1 µM | 0.1 to 1 µM | 0.1 to 1 µM | > 1 µM | > 1 µM | > 1 µM | > 1 µM | 0.1 to 1 µM | > 1 µM | 0.1 to 1 µM | –
9 | CCOc1ccc2oc(C(=O)c3cc(F)ccc3N3CCOCC3)cc2c1 [Example 108] | 0.1 to 1 µM | 0.01 to 0.1 µM | 0.01 to 0.1 µM | 0.1 to 1 µM | > 1 µM | 0.01 to 0.1 µM | 0.01 to 0.1 µM | 0.01 to 0.1 µM | 0.01 to 0.1 µM | > 1 µM | 0.01 to 0.1 µM | 0.01 to 0.1 µM | 0.01 to 0.1 µM | 0.01 to 0.1 µM | 0.01 to 0.1 µM | –
10 | O=C(c1cc2cc(OCc3ccccc3)ccc2o1)c1cc(F)ccc1N1CCCCC1 [Example 110] | > 1 µM | > 1 µM | > 1 µM | > 1 µM | > 1 µM | > 1 µM | > 1 µM | > 1 µM | > 1 µM | > 1 µM | > 1 µM | > 1 µM | > 1 µM | > 1 µM | > 1 µM | –
11 | Nc1c(C(=O)c2cccnc2N2CCCNCC2)oc2ccc(Cl)cc12 [Example 84] | > 1 µM | > 1 µM | > 1 µM | > 1 µM | > 1 µM | > 1 µM | > 1 µM | > 1 µM | > 1 µM | > 1 µM | > 1 µM | > 1 µM | > 1 µM | > 1 µM | > 1 µM | –
12 | COc1ccc2oc(C(=O)c3cccnc3N3CCCC(C)C3)cc2c1 (stereo not drawn) [Example 87] | 0.1 to 1 µM | 0.1 to 1 µM | 0.1 to 1 µM | 0.1 to 1 µM | > 1 µM | 0.1 to 1 µM | 0.1 to 1 µM | 0.1 to 1 µM | 0.1 to 1 µM | > 1 µM | 0.01 to 0.1 µM | 0.01 to 0.1 µM | 0.01 to 0.1 µM | 0.01 to 0.1 µM | < 0.01 µM | –
13 | CCOc1ccc(F)cc1C(=O)c1cc2cc(COC)ccc2o1 [Example 57] | 0.1 to 1 µM | 0.01 to 0.1 µM | 0.01 to 0.1 µM | 0.1 to 1 µM | > 1 µM | 0.01 to 0.1 µM | 0.01 to 0.1 µM | 0.01 to 0.1 µM | 0.1 to 1 µM | > 1 µM | 0.01 to 0.1 µM | 0.01 to 0.1 µM | < 0.01 µM | 0.01 to 0.1 µM | < 0.01 µM | –
14 | COc1ccc2oc(C(=O)c3cccnc3N3CCCCC3)cc2c1 [Example 92] | 0.01 to 0.1 µM | 0.01 to 0.1 µM | 0.01 to 0.1 µM | 0.01 to 0.1 µM | > 1 µM | > 1 µM | > 1 µM | > 1 µM | > 1 µM | > 1 µM | > 1 µM | > 1 µM | > 1 µM | > 1 µM | > 1 µM | –
15 | COc1ccc(OC)c(C(=O)COc2ccc(Cl)cc2C#N)c1 [Ref D, reference compound] | > 1 µM | – | 0.1 to 1 µM | > 1 µM | > 1 µM | > 1 µM | 0.1 to 1 µM | 0.1 to 1 µM | > 1 µM | > 1 µM | > 1 µM | 0.1 to 1 µM | 0.1 to 1 µM | > 1 µM | 0.1 to 1 µM | –
